Experiments:
T-cells = experiment: Cytokine analysis (IL-2, IL-4, IFN-γ sandwich ELISA); type: cell-based, mice
Description: T-cells were stimulated with either immunizing peptides (10 μg/ml), the irrelevant control peptide (10 μg/ml), UV-inactivated HSV-1 (MOI=3), or with ConA (0.5 μg/ml) as a positive control. Culture media were harvested 48 h (for IL-2) or 96 h (for IL-4 and IFN-γ) later and analyzed by specific sandwich ELISA following the manufacturer's instructions (PharMingen, San Diego, Calif.).

[1] = system: lymphocytes obtained from HSV-1 infected H-2^d mice; experiment: HSV-primed T-cell responses to gD peptides in HSV-1 infected mice; type: cell-based; conditions: HSV-1 infected H-2^d mice
Description: Twelve days after the second immunization, spleen and inguinal lymph nodes (LN) were removed and placed into ice-cold serum free HL-1 medium supplemented with 15 mM HEPES, 5×10^−5 M β-mercaptoethanol, 2 mM glutamine, 50 U of penicillin and 50 μg of streptomycin (GIBCO-BRL, Grand Island, N.Y.) (complete medium, CM). The cells were cultured in 96-well plates at 5×10^5 cells/well in CM, with recall or control peptide at 30, 10, 3, 1, or 0.3 μg/ml concentration, as previously described in (BenMohamed et al., 2000 and 2002). The cell suspensions were incubated for 72 h at 37° C. in 5% CO2. One μCi (micro-curie) of (^3H)-thymidine (Dupont MEN, Boston, Mass.) was added to each well during the last 16 h of culture. The incorporated radioactivity was determined by harvesting cells onto glass fiber filters and counted on a Matrix 96 direct ionization-counter (Packard Instruments, Meriden, Conn.). Results were expressed as the mean cpm of cell-associated (^3H)-thymidine recovered from wells containing Ag minus the mean cpm of cell-associated (^3H)-thymidine recovered from wells without Ag (A cpm) (average of triplicate). The Stimulation Index (SI) was calculated as the mean cpm of cell-associated (^3H)-thymidine recovered from wells containing Ag divided by the mean cpm of cell-associated (^3H)-thymidine recovered from wells without Ag (average of triplicate). For all experiments the irrelevant control peptide gB141-165 and the T-cell mitogen Concanavalin A (ConA) (Sigma, St. Louis, Mo.) were used as negative and positive controls, respectively. Proliferation results were confirmed by repeating each experiment twice. A T-cell proliferative response was considered positive when A cpm>1000 and SI>2.
To define the fine specificity of broadly reactive T-cells associated with viral immunity and to explore immunodominance in the context of HSV infection, proliferation of lymphocytes obtained from twenty HSV-1 infected H-2^d mice were evaluated using the twelve gD peptides as Ag (FIG. 6). […] Despite a difference between individual mice, a unique array of T-cell responses was identified for each of the twenty infected mice analyzed.

[2] = system: HLA-DR and HLA-DP molecules; experiment: MHC class II binding assays, panel of twelve HLA class II molecules (number of alleles bound); conditions: number of the twelve class II MHC alleles bound; title: Threshold 600 nM/5 alleles
[3] = T cells treated with Abs to CD4
[4] = T cells treated with Abs to CD8
[5] = splenocyte derived T cells, no Abs, average of triplicates (+/- SD)

Structure (SMILES): CC[C@H](C)[C@H](N)C(=O)N[C@@H](CS)C(=O)NCC(=O)N[C@H](C(=O)N[C@H](C(=O)N[C@@H](Cc1ccc(O)cc1)C(=O)N[C@@H](Cc1c[nH]c2ccccc12)C(=O)N[C@@H](CCSC)C(=O)N[C@@H](CCCNC(=N)N)C(=O)N[C@@H](CCCNC(=N)N)C(=O)N[C@@H](Cc1c[nH]cn1)C(=O)N[C@H](C(=O)N[C@@H](CCC(N)=O)C(=O)N[C@@H](CCCCN)C(=O)N[C@@H](C)C(=O)N1CCC[C@H]1C(=O)N[C@@H](CCCCN)C(=O)N[C@@H](CCCNC(=N)N)C(=O)N[C@H](C(=O)N[C@@H](CCCNC(=N)N)C(=O)N[C@@H](CC(C)C)C(=O)N1CCC[C@H]1C(=O)N[C@@H](Cc1c[nH]cn1)C(=O)N[C@H](C(=O)N[C@@H](CCCNC(=N)N)C(=O)N[C@@H](CCC(=O)O)C(=O)N[C@@H](CC(=O)O)C(=O)O)[C@@H](C)CC)[C@@H](C)CC)[C@@H](C)O)C(C)C)[C@@H](C)CC [HSV 39]
- IFNγ, Anti-CD4 (T-cells; [3]): 4 (+/−1) ng/ml
- IL-2, Anti-CD4 (T-cells; [3]): 36 (+/−1) pg/ml
- IFNγ, Anti-CD8 (T-cells; [4]): 54 (+/−1) ng/ml
- IL-2, Anti-CD8 (T-cells; [4]): 13 (+/−4) pg/ml
- IFNγ, None (T-cells; [5]): 179 (+/5−) ng/ml
- IL-2, None (T-cells; [5]): 135 (+/6−) pg/ml
- immunodominance of epitopes in HSV-primed T-cell responses [1]: immunodominant epitopes
- Range [2]: 6

Structure (SMILES): CC[C@H](C)[C@H](NC(=O)[C@@H](N)[C@@H](C)O)C(=O)N[C@@H](C)C(=O)N[C@@H](Cc1c[nH]c2ccccc12)C(=O)N[C@@H](Cc1ccccc1)C(=O)N[C@@H](CCCNC(=N)N)C(=O)N[C@@H](CCSC)C(=O)NCC(=O)NCC(=O)N[C@@H](CC(N)=O)C(=O)N[C@@H](CS)C(=O)N[C@@H](C)C(=O)N[C@H](C(=O)N1CCC[C@H]1C(=O)N[C@H](C(=O)N[C@H](C(=O)N[C@H](C(=O)N[C@@H](CCSC)C(=O)N[C@@H](CCC(=O)O)C(=O)N[C@@H](Cc1ccc(O)cc1)C(=O)N[C@H](C(=O)N[C@@H](CCC(=O)O)C(=O)N[C@@H](CS)C(=O)N[C@@H](CO)C(=O)N[C@@H](Cc1ccc(O)cc1)C(=O)N[C@@H](CC(N)=O)C(=O)N[C@@H](CCCCN)C(=O)N[C@@H](CO)C(=O)O)[C@@H](C)O)C(C)C)[C@@H](C)O)[C@@H](C)CC)[C@@H](C)CC [HSV 41]
- immunodominance of epitopes in HSV-primed T-cell responses [1]: subdominant epitopes
- Range [2]: 8
